Like-named read-outs stand apart in the source and are kept apart here.
Experiments:
[1] = system: GL261 MGMT+ cells; assay: Cell viability assay (Alamar Blue, 7 days), GL261 MGMT+; type: cell-based; conditions: Mus musculus, GL261, 168 h
Method: To further explore the ability of CPZ to evade MGMT-mediated resistance, MGMT-expressing T98G cells were pretreated with MGMT inhibitor O6BG followed by treatment with TMZ or CPZ. […] This cell death potentiation by TMZ upon treatment with an MGMT inhibitor was also observed in MGMT-expressing cell lines U118MG and RKO, whereas the efficacy of CPZ was again unaffected. For MGMT (−)/MMR (−) HCT116 cells, negligible potentiation of TMZ cytotoxicity was observed upon pretreatment with O6BG, confirming that loss of MMR capacity, not MGMT expression, was responsible for resistance to TMZ in HCT116 cells. Additionally, human MGMT was knocked into the MGMT-negative mouse glioma cell line, GL261, establishing the novel cell line GL261 MGMT+.
(§1) Cell Culture and Reagents. All cell lines were grown in a 37° C., 5% CO2, humidified environment, in media containing 1% penicillin/streptomycin. Stable cell line generation of GL261 MGMT+ was purchased from Creative Biogene. Cell culture conditions are as follows: cell lines U87, T98G, and RKO were grown in EMEM with 10% FBS. D54, GL261, GL261 MGMT+, and U118MG cell lines were grown in DMEM with 10% FBS. HCT116 cells were grown in RMPI with 10% FBS. D341 Med cells were grown in EMEM with 20% FBS. Temozolomide (TMZ) was purchased from AK Scientific. TMZ analogues were synthesized as described below. Compounds were dissolved in DMSO (1% final concentration, Fisher Chemical) for cell culture studies.
(§2) Cell Viability Assays. Cells were harvested, seeded in a 96-well plate and allowed to adhere. After three hours, compound was added to each well in DMSO (1% final concentration). Cells were incubated for seven days (unless otherwise noted) before viability was assessed by the Alamar Blue assay. Raptinal (20 μM) was used as a dead control.
Plated 1500 c/w for GL261; 600 c/w for U87; 600 c/w for U118MG; 1500 c/w for GL261 MGMT+ Incubated ovn and added 1 μL of compound in DMSO the next day. Incubated over 7 days; added Alamar Blue to assess cell viability and used 10 μM Raptinal as dead control. Error is SEM, n=3.

[2] = in vivo; conditions: CD-1 IGS, mouse, brain and serum, iv, 25 mg/kg
Method: Biodistribution and Toxicity Studies. […] Brain tissue and blood were collected from each mouse and immediately acidified to prevent prodrug degradation. The concentration of each compound in the serum (FIG. 4A) and brain (FIG. 4B) were quantified by LC-MS/MS.
CD-1 IGS mice were administered compound in 5% DMSO, 10% Tween-20, and 85% SPE-PCD in sterile water (30% w/v) at 25 mg/kg via lateral tail vein injection. Fifteen minutes post injection, mice were sacrificed and blood was collected by lacerating the right auricle with iris scissors. An 18 gauge angiocatheter was inserted through the left ventricle, and all residual circulatory volume was removed by perfusing 0.9% saline solution via an analog peristaltic pump. Blood samples were immediately centrifuged at 13,000 rcf for five minutes and the supernatant collected and acidified with 8.5% aqueous H3PO4. Brains were harvested from the cranial vault, acidified with 0.3% aqueous H3PO4 and flash frozen. Homogenized brain samples were centrifuged twice at 13,000 rcf for ten minutes and supernatant and tissue debris were separated. The resultant supernatant was analyzed, along with plasma, by LC-MS/MS to determine compound concentrations.

[3] = system: S. typhimurium TA100 strain; assay: Ames test, TA100; type: cell-based; conditions: 30 μM; for Ames test revertant (mutated) colonies, TA100: 5 days, no S9 activation
Method: Next, we measured the mutagenicity of CPZ versus TMZ. TMZ and other DNA methylating chemotherapies are known mutagens, inducing G:C→A:T mutations due to erroneous recognition of O^6-methylguanine. […] CPZ and TMZ (at 30 μM) were also assessed in the E. coli WP2 uvrA pKM101 strain, which is considered one of the more sensitive Ames tester strains available.
Ames Test. Compounds were assessed at the indicated concentrations in the TA100 tester strain using the Muta-ChromoPlate 96-well microplate version of the Ames test (Environmental Bio-Detection Products, Prod. No. 5051) according to manufacturer's instructions. In brief, TA100 S. typhimurium bacteria were grown overnight and plated with compound, growth medium, and indicator (no S9 activation) in 96 well plates. Bacteria were incubated for 5 days before the number of wells per 96 well plate containing revertant colonies were identified colorimetrically.

[4] = system: U87 cells; assay: Killing kinetics study; type: cell-based, human
Method: FIG. 2A-F. (A) 7 day IC50 values (M) of compound 10 and CPZ in an expanded panel of GBM cell lines. Cell viability was assessed via the Alamar Blue assay, n≥3, error is SEM. (B-E) 7 day dose-response curves of TMZ and CPZ in cell lines with variable MGMT and MMR status. Error is SEM, n≥3. (F) Killing kinetics of CPZ compared to TMZ in the U87 cell line. Cells were treated with compound once and viability was assessed every 24 hours via Alamar Blue assay. Error is SEM, n≥2.
Killing Kinetics Study. U87 cells were seeded in seven 96 well plates starting at 19,200 cells/well (for 24 hour time point) and serially diluted by two-fold for each subsequent 24 hour time point. At each time point, cell viability was assessed via Alamar Blue assay.

[5] = system: genomic DNA of GL261 cells; assay: Quantitation of O6-guanine DNA adducts in cells, GL261; type: cell-based, mouse; conditions: 100, 300, or 500 μM, 8 hours; LC-MS/MS
Method: Importantly, because CPZ was designed to release a different active species than TMZ, the alkylation pattern in a cellular context is likely different. Therefore, to assess if alkylation still occurs with CPZ, a DNA alkylation assay was performed. GL261 cells were treated with 100, 300, or 500 μM TMZ or CPZ for 8 hours after which the cells were harvested and genomic DNA was extracted and subsequently hydrolyzed to constituent deoxyribonucleosides. LC-MS/MS analysis was employed to quantify the amount of O^6-methyl-2′-deoxyguanosine (O^6-Me-dG) or O^6-propargylated-2′-O^6-deoxyguanosine (O^6-Prop-dG) in each sample.
Quantitation of O^6-guanine DNA Adducts in Cells. GL261, A172, or D54 cells were plated at 1×10^6 c/w in a 6-well plate before they were treated with compound at the indicated concentration (1% final concentration DMSO). After incubation for the indicated time, the cells were harvested and pelleted. Genomic DNA was extracted using the DNeasy Blood & Tissue Kit (Qiagen, ID: 69504). DNA was then precipitated using the following procedure: 1/10 v/v […] sodium acetate (pH 5.2) and 2.5× v/v ethanol was added to each sample which was then kept at −80° C. for 1 h. […] Hydrolyzed samples were then submitted for LC-MS/MS quantitation along with a synthetic standard. Samples were analyzed with a 5500 QTRAP LC/MS/MS system (AB Sciex) with a 1200 series HPLC system (Agilent).

[6] = system: HCT116 cells; assay: Cell viability assay (Alamar Blue, 7 days), HCT116; type: cell-based; conditions: Homo sapiens, HCT-116, 168 h
Method: as §1, §2

[7] = Maximum tolerated dose / tolerability in mice; type: in vivo; conditions: in vivo, 66 mg/kg, once per day over 5 days
[8] = 7 day dose-response, human MGMT knock-in, read-out: IC50, GL261 MGMT+
[9] = MGMT (+) MMR (+), 7 days, 1500 c/w, SEM, n=3, read-out: Activity, GL261 MGMT+
[10] = MGMT (−) MMR (−), 7 days, read-out: Activity, HCT116
[11] = MGMT (−)/MMR (−), 7 day, read-out: IC50, HCT116
[12] = female, C57BL/6, mouse, ip, intraperitoneal, read-out: MTD, I.P.

Row | SMILES | IC50 [1, 8] [µM] | IC50 [1, 9] [µM] | Kp at 15 min [2] | Mutagenicity, TA100 [3] | Ames test revertant (mutated) colonies, TA100 [3] | Time to near peak threshold of cell death ([4]; treated once, viability every 24 hours) [h] | O6-alkyl-2′-deoxyguanosine adducts (O6-Me-dG for TMZ, O6-Prop-dG for CPZ), GL261 [5] | IC50 [6, 10] [µM] | IC50 [6, 11] [µM] | MTD at 5 days [7, 12] [mg/kg] | Time to induce cell death in culture ([4]; at 100 μM) [days] | MTD at 5 days ([7]; mouse, intravenous, read-out: MTD, I.V.) [mg/kg]
1 | C#CCn1nnc2c(Cl)ncn2c1=O [CPZ, 8-chloro-3-(prop-2-yn-1-yl)imidazo[5,1-d][1,2,3,5]tetrazin-4(3H)-one] | 29 | 29 ± 5 | 1.2 ± 0.2 | non-mutagenic | no revertant colonies | ≤ 72 | no detection of O^6-Prop-dG adducts | 14 ± 16 | 14 | 66 |  | 
2 | Cn1nnc2c(C(N)=O)ncn2c1=O [TMZ, temozolomide, reference compound] | > 1000 | > 1000 | 0.08 ± 0.01 | mutagenic | 35/96 |  | clear dose-dependent increase | 840 ± 30 | > 800 | 66 | 5 to 10 | 66

— US20250129083A1, “IMIDAZOTETRAZINE COMPOUNDS AND TREATMENT OF TMZ-RESISTANT CANCERS” (THE BOARD OF TRUSTEES OF THE UNIVERSITY OF ILLINOIS, priority 2022, published 2025)
